Data taken from ChEMBL document CHEMBL1201862, “PubChem BioAssay data set” (2004).
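Growth conditions: 96-well plates. Treatment: test compound, 48 hours, 5 concentrations. Analysis: linear interpolation between bracketing concentrations; unreached endpoints set to highest concentration. Here, GI50 denotes the concentration required for 50% inhibition of growth.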 Calls of active or inactive are those of the source. Rule as the data show it: active = GI50 up to about 1.1 µM and inactive = higher.

Key:
Assay in all cases: NCI anticancer screen, dose series, 48 h
SN12C = test system: SN12C
SR = test system: SR
UACC-62 = test system: UACC-62
M14 = test system: M14
SF-268 = test system: SF-268
SF-295 = test system: SF-295
UACC-257 = test system: UACC-257
NCI-H522 = test system: NCI-H522
NCI-H460 = test system: NCI-H460
DU-145 = test system: DU-145
COLO 205 = test system: COLO 205
ACHN = test system: ACHN
MDA-MB-435 = test system: MDA-MB-435
HCC 2998 = test system: HCC 2998
HT-29 = test system: HT-29
OVCAR-5 = test system: OVCAR-5
MOLT-4 = test system: MOLT-4
HCT-15 = test system: HCT-15
A549 = test system: A549
SK-MEL-2 = test system: SK-MEL-2

SMILES	GI50 (SN12C)	GI50 (SR)	GI50 (UACC-62)	GI50 (M14)	GI50 (SF-268)	GI50 (SF-295)	GI50 (UACC-257)	GI50 (NCI-H522)	GI50 (NCI-H460)	GI50 (DU-145)	GI50 (COLO 205)	GI50 (ACHN)	GI50 (MDA-MB-435)	GI50 (HCC 2998)	GI50 (HT-29)	GI50 (OVCAR-5)	GI50 (MOLT-4)	GI50 (HCT-15) [µM]	GI50 (A549)	GI50 (SK-MEL-2)
C/C=C(/C)C(=O)O[C@@H]1c2c(C)coc2C[C@H]2CC[C@H](O)[C@H](C)[C@]21C	31.3 µM (inactive)	49.9 µM (inactive)	43.8 µM (inactive)	54.1 µM (inactive)	70.8 µM (inactive)	> 100 µM (inactive)	34.2 µM (inactive)	60 µM (inactive)	> 100 µM (inactive)	> 100 µM (inactive)	> 100 µM (inactive)	36.9 µM (inactive)	38.5 µM (inactive)	> 100 µM (inactive)	47.1 µM (inactive)	> 100 µM (inactive)	30.6 µM (inactive)	78.5	–	–
CCOC(=O)C(NC(=O)c1ccccc1)(Nc1ccc(S(=O)(=O)Nc2cc(C)nc(C)n2)cc1)C(F)(F)F (centres undefined)	> 100 µM (inactive)	> 100 µM (inactive)	> 100 µM (inactive)	> 100 µM (inactive)	> 100 µM (inactive)	> 100 µM (inactive)	> 100 µM (inactive)	> 100 µM (inactive)	> 100 µM (inactive)	> 100 µM (inactive)	> 100 µM (inactive)	> 100 µM (inactive)	> 100 µM (inactive)	–	> 100 µM (inactive)	> 100 µM (inactive)	> 100 µM (inactive)	> 100	> 100 µM (inactive)	> 100 µM (inactive)
CC#CC#C/C=C1/O[C@]2(CCC(OC(=O)CC(C)C)CO2)[C@@H]2O[C@H]12 (some centres undefined)	22.2 µM (inactive)	28.1 µM (inactive)	23.3 µM (inactive)	21.9 µM (inactive)	24.4 µM (inactive)	–	30.3 µM (inactive)	19.3 µM (inactive)	36.1 µM (inactive)	42.5 µM (inactive)	–	21 µM (inactive)	21.1 µM (inactive)	19.5 µM (inactive)	18.2 µM (inactive)	28.2 µM (inactive)	18.7 µM (inactive)	21	39.6 µM (inactive)	21.6 µM (inactive)
CC(C)=CCC[C@@H](C)C1=C(O)C(=O)C(C)=C(Nc2ccccc2F)C1=O	15 µM (inactive)	28.1 µM (inactive)	12.1 µM (inactive)	16.7 µM (inactive)	9.77 µM (inactive)	3.82 µM (inactive)	21.9 µM (inactive)	–	12 µM (inactive)	23.9 µM (inactive)	23.4 µM (inactive)	13.8 µM (inactive)	36.7 µM (inactive)	48.1 µM (inactive)	33.3 µM (inactive)	60.4 µM (inactive)	5.68 µM (inactive)	5.2	17.2 µM (inactive)	18.7 µM (inactive)
N=C(N)N/N=C(\c1ccc(Cl)cc1)C1CC1	19.1 µM (inactive)	11.4 µM (inactive)	15.9 µM (inactive)	15.4 µM (inactive)	28.9 µM (inactive)	21.3 µM (inactive)	14.5 µM (inactive)	14.8 µM (inactive)	15.6 µM (inactive)	22.6 µM (inactive)	17.2 µM (inactive)	21.8 µM (inactive)	16.9 µM (inactive)	7 µM (inactive)	16.5 µM (inactive)	17.9 µM (inactive)	–	19	32.4 µM (inactive)	18.3 µM (inactive)
CCOC(=O)CCC(C(=O)OCC)n1nnc2ccc(Nc3c(C)[n+]([O-])c4cc(F)c(OCC)cc4[n+]3[O-])cc21 (centres undefined)	45.4 µM (inactive)	36.5 µM (inactive)	20.1 µM (inactive)	62.4 µM (inactive)	28 µM (inactive)	77.4 µM (inactive)	21.2 µM (inactive)	61.7 µM (inactive)	60.3 µM (inactive)	58.9 µM (inactive)	28.2 µM (inactive)	51.8 µM (inactive)	42.9 µM (inactive)	–	56.8 µM (inactive)	> 100 µM (inactive)	44.7 µM (inactive)	52.8	77.8 µM (inactive)	32.3 µM (inactive)
O=C1/C(=C\c2cccc(Oc3ccccc3)c2)S(=O)(=O)C(c2ccccc2)N1c1ccc(Cl)cc1 (centres undefined)	15.6 µM (inactive)	8.2 µM (inactive)	7.82 µM (inactive)	14 µM (inactive)	–	5.28 µM (inactive)	24 µM (inactive)	15.7 µM (inactive)	14.2 µM (inactive)	19.1 µM (inactive)	14.3 µM (inactive)	12.9 µM (inactive)	7.94 µM (inactive)	56.1 µM (inactive)	14.3 µM (inactive)	11.7 µM (inactive)	4.59 µM (inactive)	13.7	42.9 µM (inactive)	8.36 µM (inactive)
COC(=O)c1n[nH]c(C)c1/N=N/N(C)CCC#N	16.5 µM (inactive)	5.79 µM (inactive)	15.7 µM (inactive)	30.8 µM (inactive)	15.1 µM (inactive)	24.9 µM (inactive)	50.7 µM (inactive)	10.5 µM (inactive)	14.2 µM (inactive)	15.1 µM (inactive)	13.4 µM (inactive)	11.6 µM (inactive)	59.8 µM (inactive)	19.5 µM (inactive)	23.3 µM (inactive)	–	3.33 µM (inactive)	14.2	16.1 µM (inactive)	23.6 µM (inactive)
Cc1c(-c2ccccc2)c(C#N)c2nnn(C)c(=O)n12	> 100 µM (inactive)	65.6 µM (inactive)	> 100 µM (inactive)	> 100 µM (inactive)	> 100 µM (inactive)	68.9 µM (inactive)	> 100 µM (inactive)	> 100 µM (inactive)	> 100 µM (inactive)	> 100 µM (inactive)	> 100 µM (inactive)	> 100 µM (inactive)	> 100 µM (inactive)	> 100 µM (inactive)	> 100 µM (inactive)	> 100 µM (inactive)	–	> 100	> 100 µM (inactive)	> 100 µM (inactive)
CCOC(=O)C1CC(O)C(=O)N1C (centres undefined)	> 100 µM (inactive)	> 100 µM (inactive)	> 100 µM (inactive)	> 100 µM (inactive)	–	> 100 µM (inactive)	> 100 µM (inactive)	–	–	> 100 µM (inactive)	> 100 µM (inactive)	> 100 µM (inactive)	> 100 µM (inactive)	> 100 µM (inactive)	> 100 µM (inactive)	> 100 µM (inactive)	> 100 µM (inactive)	> 100	> 100 µM (inactive)	> 100 µM (inactive)
O=C(N/C=C1\C(=O)Oc2ccccc2C1=O)Oc1ccccc1	18.6 µM (inactive)	18 µM (inactive)	20 µM (inactive)	19.2 µM (inactive)	–	30.5 µM (inactive)	31 µM (inactive)	25 µM (inactive)	33.9 µM (inactive)	20 µM (inactive)	41.4 µM (inactive)	20.9 µM (inactive)	20.1 µM (inactive)	24.8 µM (inactive)	40.8 µM (inactive)	46.1 µM (inactive)	24.9 µM (inactive)	23.7	32.5 µM (inactive)	14.5 µM (inactive)
COc1ccc(C2=NNC(c3cc4cc(Br)ccc4nc3Cl)C2)cc1 (centres undefined)	7.66 µM (inactive)	0.185 µM (active)	22.6 µM (inactive)	11.5 µM (inactive)	–	–	12.2 µM (inactive)	–	10 µM (inactive)	11.7 µM (inactive)	11.7 µM (inactive)	13.2 µM (inactive)	7.16 µM (inactive)	11.5 µM (inactive)	14.6 µM (inactive)	> 25 µM (inactive)	3.82 µM (inactive)	–	–	11.8 µM (inactive)
c1ccc(COc2ccc(CC3SCCCS3)cc2)cc1	–	34.4 µM (inactive)	> 100 µM (inactive)	> 100 µM (inactive)	> 100 µM (inactive)	> 100 µM (inactive)	21.8 µM (inactive)	> 100 µM (inactive)	65.8 µM (inactive)	> 100 µM (inactive)	> 100 µM (inactive)	> 100 µM (inactive)	> 100 µM (inactive)	> 100 µM (inactive)	> 100 µM (inactive)	–	31.8 µM (inactive)	67.3	> 100 µM (inactive)	–
Cc1ccc(C2=Nc3c(N)nc(N)nc3NC(c3ccccc3)C2)cc1 (centres undefined)	12.2 µM (inactive)	3.56 µM (inactive)	8.15 µM (inactive)	6.4 µM (inactive)	14.3 µM (inactive)	–	13.5 µM (inactive)	3.13 µM (inactive)	–	14.7 µM (inactive)	–	15.4 µM (inactive)	1.92 µM (inactive)	4.44 µM (inactive)	4.05 µM (inactive)	18 µM (inactive)	7.43 µM (inactive)	3.1	10.2 µM (inactive)	–
CCc1nnc(-n2c(C)nc3cc(Cl)ccc3c2=O)s1	34.2 µM (inactive)	34.5 µM (inactive)	22.1 µM (inactive)	38.7 µM (inactive)	37.8 µM (inactive)	21.4 µM (inactive)	39.4 µM (inactive)	20.5 µM (inactive)	40.5 µM (inactive)	41.6 µM (inactive)	24.4 µM (inactive)	33.8 µM (inactive)	35 µM (inactive)	49.8 µM (inactive)	35.2 µM (inactive)	> 100 µM (inactive)	26.3 µM (inactive)	44.1	31 µM (inactive)	–
CCOC(=O)C1(C(=O)OCC)COS(=O)OC1	> 100 µM (inactive)	17.8 µM (inactive)	–	> 100 µM (inactive)	> 10 µM (inactive)	> 100 µM (inactive)	> 100 µM (inactive)	0.604 µM (active)	21.3 µM (inactive)	> 100 µM (inactive)	23.8 µM (inactive)	32.6 µM (inactive)	36.7 µM (inactive)	47.6 µM (inactive)	> 100 µM (inactive)	–	16.4 µM (inactive)	19.2	> 100 µM (inactive)	–
